Experiments:
[1] = target: T1, CYP1A2 (Homo sapiens, UniProt P05177); assay: Metabolic stability in recombinant human CYP1A2 with NADPH; assay type: in vitro ADME; settings: CYP1A2 share of CYP metabolism, scaled by abundance and ISEF
T1 sequence (P05177 1-516): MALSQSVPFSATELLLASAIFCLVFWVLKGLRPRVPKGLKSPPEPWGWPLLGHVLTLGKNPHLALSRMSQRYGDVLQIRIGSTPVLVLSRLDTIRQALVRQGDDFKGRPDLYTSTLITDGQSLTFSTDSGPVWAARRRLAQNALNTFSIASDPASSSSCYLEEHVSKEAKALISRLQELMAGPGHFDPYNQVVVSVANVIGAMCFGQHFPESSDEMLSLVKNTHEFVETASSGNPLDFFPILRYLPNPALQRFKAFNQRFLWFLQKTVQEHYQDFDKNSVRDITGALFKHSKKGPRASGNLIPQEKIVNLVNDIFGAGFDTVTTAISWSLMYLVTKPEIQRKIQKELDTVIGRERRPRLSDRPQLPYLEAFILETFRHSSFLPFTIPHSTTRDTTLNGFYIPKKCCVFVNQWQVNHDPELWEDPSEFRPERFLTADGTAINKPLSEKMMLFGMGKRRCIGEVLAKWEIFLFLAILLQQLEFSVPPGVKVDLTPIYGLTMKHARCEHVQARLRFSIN

[2] = target: T2, recombinant human CYP2A6 (Homo sapiens, UniProt P11509); assay: Metabolic stability in recombinant human CYP2A6 with NADPH; assay type: in vitro ADME; settings: CYP2A6 share of CYP metabolism, scaled by abundance and ISEF
T2 sequence (P11509 1-494): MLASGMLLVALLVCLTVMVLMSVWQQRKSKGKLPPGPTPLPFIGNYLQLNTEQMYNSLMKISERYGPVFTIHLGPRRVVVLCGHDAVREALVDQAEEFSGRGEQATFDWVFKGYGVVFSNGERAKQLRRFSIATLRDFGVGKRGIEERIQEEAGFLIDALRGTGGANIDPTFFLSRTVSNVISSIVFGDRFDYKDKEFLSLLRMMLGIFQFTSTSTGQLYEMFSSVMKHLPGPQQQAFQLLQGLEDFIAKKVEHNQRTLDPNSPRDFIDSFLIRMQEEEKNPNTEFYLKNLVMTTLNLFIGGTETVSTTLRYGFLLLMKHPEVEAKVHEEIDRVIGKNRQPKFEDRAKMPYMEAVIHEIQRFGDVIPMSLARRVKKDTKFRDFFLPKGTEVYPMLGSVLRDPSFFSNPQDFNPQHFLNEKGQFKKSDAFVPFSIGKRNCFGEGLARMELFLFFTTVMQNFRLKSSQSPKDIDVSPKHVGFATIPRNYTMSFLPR

[3] = target: T3, CYP2B6 (Homo sapiens, UniProt P20813); assay: Metabolic stability in recombinant human CYP2B6 with NADPH; assay type: in vitro ADME; settings: CYP2B6 share of CYP metabolism, scaled by abundance and ISEF
T3 sequence (P20813 1-491): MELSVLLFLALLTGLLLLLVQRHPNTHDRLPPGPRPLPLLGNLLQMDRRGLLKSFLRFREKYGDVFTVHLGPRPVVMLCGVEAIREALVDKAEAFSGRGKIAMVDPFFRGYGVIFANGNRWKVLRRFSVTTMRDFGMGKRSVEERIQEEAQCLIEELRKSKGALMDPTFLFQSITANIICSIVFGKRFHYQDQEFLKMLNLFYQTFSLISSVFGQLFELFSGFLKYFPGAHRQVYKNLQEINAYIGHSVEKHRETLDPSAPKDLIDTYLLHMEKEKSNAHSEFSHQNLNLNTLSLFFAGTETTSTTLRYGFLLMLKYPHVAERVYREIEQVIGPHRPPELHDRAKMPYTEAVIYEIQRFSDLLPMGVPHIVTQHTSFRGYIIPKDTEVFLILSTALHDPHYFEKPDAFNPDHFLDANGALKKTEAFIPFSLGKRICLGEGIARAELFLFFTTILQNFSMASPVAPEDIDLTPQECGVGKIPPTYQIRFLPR

[4] = target: T4, CYP2C9 (Homo sapiens, UniProt P11712); assay: Metabolic stability in recombinant human CYP2C9 with NADPH; assay type: in vitro ADME; settings: CYP2C9 share of CYP metabolism, scaled by abundance and ISEF
T4 sequence (P11712 whole entry): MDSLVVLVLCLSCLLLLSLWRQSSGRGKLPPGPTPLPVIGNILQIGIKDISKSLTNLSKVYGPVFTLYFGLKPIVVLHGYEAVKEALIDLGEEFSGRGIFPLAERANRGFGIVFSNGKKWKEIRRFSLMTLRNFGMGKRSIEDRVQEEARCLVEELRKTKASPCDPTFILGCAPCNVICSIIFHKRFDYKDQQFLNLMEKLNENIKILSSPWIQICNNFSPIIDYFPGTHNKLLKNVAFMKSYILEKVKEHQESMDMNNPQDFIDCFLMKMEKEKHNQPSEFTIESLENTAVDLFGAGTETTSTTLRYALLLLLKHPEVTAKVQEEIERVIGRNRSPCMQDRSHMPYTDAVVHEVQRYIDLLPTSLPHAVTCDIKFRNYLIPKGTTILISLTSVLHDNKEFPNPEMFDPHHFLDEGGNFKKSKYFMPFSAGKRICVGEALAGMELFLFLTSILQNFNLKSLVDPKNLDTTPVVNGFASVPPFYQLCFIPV

[5] = target: T5, CYP2D6 (Homo sapiens, UniProt P10635); assay: Metabolic stability in recombinant human CYP2D6 with NADPH; assay type: in vitro ADME; settings: CYP2D6 share of CYP metabolism, scaled by abundance and ISEF
T5 sequence (P10635 whole entry): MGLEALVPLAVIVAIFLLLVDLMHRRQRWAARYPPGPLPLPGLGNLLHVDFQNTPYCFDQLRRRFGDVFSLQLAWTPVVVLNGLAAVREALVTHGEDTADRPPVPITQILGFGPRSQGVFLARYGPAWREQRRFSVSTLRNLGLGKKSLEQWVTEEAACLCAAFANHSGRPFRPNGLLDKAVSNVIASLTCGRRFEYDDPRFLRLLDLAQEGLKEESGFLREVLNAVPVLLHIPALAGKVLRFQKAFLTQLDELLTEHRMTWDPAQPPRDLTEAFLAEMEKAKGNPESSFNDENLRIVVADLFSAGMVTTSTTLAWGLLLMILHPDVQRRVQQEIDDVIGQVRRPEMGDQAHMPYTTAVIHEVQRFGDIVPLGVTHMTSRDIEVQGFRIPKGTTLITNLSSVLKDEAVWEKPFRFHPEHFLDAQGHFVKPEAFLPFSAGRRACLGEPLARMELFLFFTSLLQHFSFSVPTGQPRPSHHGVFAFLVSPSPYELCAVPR

[6] = target: recombinant human CYP2E1 (Homo sapiens, UniProt P05181); assay: Metabolic stability in recombinant human CYP2E1 with NADPH; assay type: in vitro ADME; settings: CYP2E1 share of CYP metabolism, scaled by abundance and ISEF
recombinant human CYP2E1, sequence (P05181 whole entry): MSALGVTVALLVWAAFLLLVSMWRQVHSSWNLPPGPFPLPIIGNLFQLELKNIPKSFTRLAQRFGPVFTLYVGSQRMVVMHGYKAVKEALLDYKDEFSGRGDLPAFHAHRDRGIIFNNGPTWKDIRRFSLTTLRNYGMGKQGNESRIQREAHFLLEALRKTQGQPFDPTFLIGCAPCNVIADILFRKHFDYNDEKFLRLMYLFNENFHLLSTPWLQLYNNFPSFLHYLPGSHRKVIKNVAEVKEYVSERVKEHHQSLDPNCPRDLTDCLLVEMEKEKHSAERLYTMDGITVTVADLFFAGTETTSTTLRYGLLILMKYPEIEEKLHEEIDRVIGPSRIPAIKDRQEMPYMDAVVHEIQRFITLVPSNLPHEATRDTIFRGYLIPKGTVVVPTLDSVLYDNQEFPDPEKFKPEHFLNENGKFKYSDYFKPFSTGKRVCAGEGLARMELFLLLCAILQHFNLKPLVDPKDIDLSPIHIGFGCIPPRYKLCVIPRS

[7] = target: T6, CYP3A4 (Homo sapiens, UniProt P08684); assay: Metabolic stability in recombinant human CYP3A4 with NADPH; assay type: in vitro ADME; settings: CYP3A4 share of CYP metabolism, scaled by abundance and ISEF
T6 sequence (P08684 whole entry): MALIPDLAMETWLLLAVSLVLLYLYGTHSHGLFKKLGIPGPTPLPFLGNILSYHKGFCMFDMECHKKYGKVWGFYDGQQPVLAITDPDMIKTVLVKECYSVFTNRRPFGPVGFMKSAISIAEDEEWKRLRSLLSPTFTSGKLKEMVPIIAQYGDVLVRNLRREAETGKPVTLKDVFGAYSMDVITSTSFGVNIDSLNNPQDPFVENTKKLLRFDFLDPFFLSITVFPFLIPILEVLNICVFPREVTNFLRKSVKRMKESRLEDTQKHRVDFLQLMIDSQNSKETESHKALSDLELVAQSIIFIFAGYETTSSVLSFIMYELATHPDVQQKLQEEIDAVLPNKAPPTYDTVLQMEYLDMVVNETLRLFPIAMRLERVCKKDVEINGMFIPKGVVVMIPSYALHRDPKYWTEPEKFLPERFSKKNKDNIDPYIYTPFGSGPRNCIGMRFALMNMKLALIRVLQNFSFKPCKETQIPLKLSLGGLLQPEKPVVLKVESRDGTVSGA

[8] = target: T5, CYP2D6; assay: CYP2D6 inhibition in human liver microsomes; assay type: in vitro ADME
[9] = target: T6, CYP3A4; assay: CYP3A4 inhibition in human liver microsomes; assay type: in vitro ADME
[10] = Human plasma protein binding; assay type: in vitro ADME; settings: human, human plasma
[11] = Human liver microsomal protein binding; assay type: in vitro ADME; settings: human liver microsomes
[12] = Blood‐to‐plasma ratio; assay type: in vitro ADME; settings: PBPK input
[13] = PBPK model parameters; design: species or system human
[14] = target: T1, CYP1A2; settings: main text summary
[15] = target: T3, CYP2B6; settings: main text summary
[16] = target: T4, CYP2C9; settings: main text summary
[17] = system: CYP2B6; assay: in vitro; settings: human
[18] = target: T1, CYP1A2; assay: biochemical
[19] = target: T4, CYP2C9; assay: biochemical
[20] = target: CYP2C19 (Homo sapiens, UniProt P33261); assay: biochemical
CYP2C19, sequence (P33261 whole entry): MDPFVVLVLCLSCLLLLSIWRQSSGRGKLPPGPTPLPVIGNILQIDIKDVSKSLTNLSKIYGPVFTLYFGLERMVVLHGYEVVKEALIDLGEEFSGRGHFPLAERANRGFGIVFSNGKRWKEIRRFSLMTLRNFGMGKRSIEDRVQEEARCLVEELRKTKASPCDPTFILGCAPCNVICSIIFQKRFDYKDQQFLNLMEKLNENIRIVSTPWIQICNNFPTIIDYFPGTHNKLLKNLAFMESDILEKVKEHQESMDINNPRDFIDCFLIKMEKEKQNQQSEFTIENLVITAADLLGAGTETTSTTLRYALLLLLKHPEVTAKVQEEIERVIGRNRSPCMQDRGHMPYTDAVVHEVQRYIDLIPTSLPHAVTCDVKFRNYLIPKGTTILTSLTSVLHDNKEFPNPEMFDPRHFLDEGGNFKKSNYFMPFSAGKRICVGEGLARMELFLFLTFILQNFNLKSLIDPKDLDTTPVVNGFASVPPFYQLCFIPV

- Relative Contribution (fm) [1]: negligible
- Relative Contribution (fm) [2]: negligible
- Relative Contribution (fm) [3]: negligible
- Relative Contribution (fm) [4]: negligible
- Relative Contribution (fm) [5]: negligible
- Relative Contribution (fm) [6]: negligible
- Relative Contribution (fm) [7]: 88%
- Ki [8]: 25.4 µM
- inhibitory effect on CYP2D6 in vitro (in words) ([8]; main text summary): No inhibitory effect
- Ki [9]: 34.7 µM
- inhibitory effect on CYP3A4 in vitro (in words) ([9]; main text summary): time‐dependent inhibition (TDI)
- fraction unbound [10]: 0.044
- fraction unbound [11]: 0.85
- B:P [12]: 0.93
- fmCYP3A4 ([13]; PBPK input, set to match the ritonavir DDI study): 0.25
- CYP3A4 CLint (unbound) ([13]; retrograde model from CL/F): 0.376 µL/min/pmol
- fmCYP3A4 ([13]; value to match the ritonavir DDI study): 25%
- inhibitory effect on CYP1A2 in vitro (in words) [14]: weak to moderate inhibition
- inhibitory effect on CYP2B6 in vitro (in words) [15]: No inhibitory effect
- inhibitory effect on CYP2C9 in vitro (in words) [16]: weak to moderate inhibition
- EC50 at 72 h [17]: 4.84 µM
- Ki [18]: 9.04 µM
- Ki [19]: 12.3 µM
- Ki [20]: 27.3 µM
Structure (SMILES): N#C[C@H](C[C@@H]1CCCNC1=O)NC(=O)[C@H](CC1CC1)NC(=O)c1cc2cccc(Cl)c2[nH]1 [Pomotrelvir, pomotrelvir]

Reference: paper PMC10583239 (CPT: Pharmacometrics & Systems Pharmacology, 2023)
